Results on twelve molecules are retold here after patent publication US20250235543A1, “MODIFIED PROTEINS AND PROTEIN DEGRADERS” (Cullgen (Shanghai), Inc., priority 2021, published 2025).

For assay [1], the system named is cyclin D1. The experiment in a line: Cyclin D1 percentage degradation in Calu-1 cells (immunoblotting). The class given is cell-based. Conditions: 200 nM, 16 hours. The method, then:
(§1) […] A: protein percentage degradation >=80%; B: protein percentage degradation <80%, and >=50%; C: protein percentage degradation <50%, and >=30%; D: protein percentage degradation <30%.
(§2) Cultured cells were washed with cold PBS once and lysed in cold RIPA buffer supplemented with protease inhibitors and phosphatase inhibitors (Beyotime Biotechnology). The solutions were then incubated at 4° C. for 30 min with gentle agitation to fully lysed cells. Cell lysates were centrifuged at 13,000 rpm for 10 min at 4° C. and pellets were discarded. Total protein concentrations in the lysates were determined following BCA assays (Beyotime Biotechnology). Cell lysates were mixed with Laemmli loading buffer and heated at 99° C. for 5 min. Proteins were resolved on SDS-PAGE and visualized using Western ECL Substrate kits on a ChemiDoc MP Imaging system (Bio-Rad). Protein bands were quantitated using the Image Lab software provided by Bio-Rad.

For assay [2], the target named is T1, CDK4 (Homo sapiens, UniProt P11802).
T1 construct: endogenous in cells; host or cells: Calu-1
The assay is described as follows: CDK4 percentage degradation in Calu-1 cells (immunoblotting). The class given is cell-based. As to conditions: read-out: CDK4 Degradation (200 nM). Here is the method: as §1, §2

Like-named read-outs stand apart in the source and are kept apart here.

T1 sequence (P11802 2-303 limits assumed): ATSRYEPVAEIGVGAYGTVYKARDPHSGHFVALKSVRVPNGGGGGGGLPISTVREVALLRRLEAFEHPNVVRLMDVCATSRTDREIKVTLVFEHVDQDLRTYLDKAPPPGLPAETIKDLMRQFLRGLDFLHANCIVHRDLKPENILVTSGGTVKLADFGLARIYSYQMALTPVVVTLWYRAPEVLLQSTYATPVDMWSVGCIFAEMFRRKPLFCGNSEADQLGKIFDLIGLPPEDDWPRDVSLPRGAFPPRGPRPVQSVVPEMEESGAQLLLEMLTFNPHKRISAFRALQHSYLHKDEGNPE
T1 sequence (P24385 whole entry partner): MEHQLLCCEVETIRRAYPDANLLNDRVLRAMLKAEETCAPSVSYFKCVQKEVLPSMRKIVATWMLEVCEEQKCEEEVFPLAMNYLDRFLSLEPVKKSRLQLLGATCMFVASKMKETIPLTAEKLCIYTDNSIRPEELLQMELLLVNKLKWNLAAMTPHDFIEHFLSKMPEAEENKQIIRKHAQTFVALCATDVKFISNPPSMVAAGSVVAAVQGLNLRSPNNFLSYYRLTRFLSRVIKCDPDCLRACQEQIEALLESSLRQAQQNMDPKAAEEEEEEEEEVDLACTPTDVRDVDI
T1 sequence (Q16531 2-1140 limits assumed, further chain): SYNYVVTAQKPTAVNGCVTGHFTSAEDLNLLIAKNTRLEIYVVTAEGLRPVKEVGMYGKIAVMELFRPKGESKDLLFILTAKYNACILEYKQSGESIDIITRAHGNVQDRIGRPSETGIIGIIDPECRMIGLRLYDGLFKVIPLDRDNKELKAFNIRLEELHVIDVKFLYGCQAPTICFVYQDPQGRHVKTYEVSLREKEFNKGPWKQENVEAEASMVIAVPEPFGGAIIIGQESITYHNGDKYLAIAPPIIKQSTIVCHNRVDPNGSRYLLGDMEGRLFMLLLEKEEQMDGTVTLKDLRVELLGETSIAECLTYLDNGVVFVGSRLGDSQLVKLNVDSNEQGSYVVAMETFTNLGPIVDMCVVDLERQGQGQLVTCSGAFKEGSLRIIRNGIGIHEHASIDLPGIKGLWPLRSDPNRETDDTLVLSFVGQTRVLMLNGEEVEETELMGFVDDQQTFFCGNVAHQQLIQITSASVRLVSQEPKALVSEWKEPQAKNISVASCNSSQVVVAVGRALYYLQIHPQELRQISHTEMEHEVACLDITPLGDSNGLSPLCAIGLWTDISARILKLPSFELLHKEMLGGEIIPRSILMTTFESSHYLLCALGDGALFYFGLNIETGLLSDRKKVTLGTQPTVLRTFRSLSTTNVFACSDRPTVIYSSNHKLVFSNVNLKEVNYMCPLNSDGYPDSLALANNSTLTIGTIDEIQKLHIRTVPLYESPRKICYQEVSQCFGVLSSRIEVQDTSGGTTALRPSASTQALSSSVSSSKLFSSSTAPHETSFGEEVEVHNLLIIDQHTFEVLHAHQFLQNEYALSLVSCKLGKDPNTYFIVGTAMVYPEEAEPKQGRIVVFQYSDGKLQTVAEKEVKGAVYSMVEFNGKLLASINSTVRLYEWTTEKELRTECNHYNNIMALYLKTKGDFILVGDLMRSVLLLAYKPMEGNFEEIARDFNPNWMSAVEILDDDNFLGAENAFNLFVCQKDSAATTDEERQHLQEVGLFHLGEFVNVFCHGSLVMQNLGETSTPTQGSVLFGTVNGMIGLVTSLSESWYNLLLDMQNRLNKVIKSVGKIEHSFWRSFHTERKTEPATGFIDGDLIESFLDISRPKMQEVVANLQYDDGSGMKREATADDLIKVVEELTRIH

With `CC(=O)c1c(C)c2cnc(Nc3ccc(N4CCN(CC(=O)NCCOCCOCCNC(=O)CNc5ccc(C(=O)Nc6ncc(C)s6)c(C)c5)CC4)cn3)nc2n(C2CCCC2)c1=O` [CPD-017, 4-((14-(4-(6-((6-Acetyl-8-cyclopentyl-5-methyl-7-oxo-7,8-dihydropyrido[2,3-d]pyrimidin-2-yl)amino)pyridin-3-yl)piperazin-1-yl)-2,13-dioxo-6,9-dioxa-3,12-diazatetradecyl)amino)-2-methyl-N-(5-methylthiazol-2-yl)benzamide], the “CyclinD1 Degradation (200 nM)” value in assay [1] is given as “D (protein percentage degradation <30%)”. For the same molecule, in assay [2] (Calu-1 cells, 200 nM, 16 hours), the inhibition at 0.2 µM was < 30%.
Regarding `CC(=O)c1c(C)c2cnc(Nc3ccc(N4CCN(CC(=O)NCCOCCOCCOCCNC(=O)CNc5ccc(C(=O)Nc6ncc(C)s6)c(C)c5)CC4)cn3)nc2n(C2CCCC2)c1=O` [CPD-018, 4-((17-(4-(6-((6-Acetyl-8-cyclopentyl-5-methyl-7-oxo-7,8-dihydropyrido[2,3-d]pyrimidin-2-yl)amino)pyridin-3-yl)piperazin-1-yl)-2,16-dioxo-6,9,12-trioxa-3,15-diazaheptadecyl)amino)-2-methyl-N-(5-methylthiazol-2-yl)benzamide], in assay [1], the “CyclinD1 Degradation (200 nM)” value is “C (protein percentage degradation <50%, and >=30%)”. For the same molecule, the inhibition at 0.2 µM in assay [2] (Calu-1 cells, 200 nM, 16 hours) fell in the range of 30 to 50%.
Consider `CC(=O)c1c(C)c2cnc(Nc3ccc(N4CCN(CC(=O)NCCOCCOCCOCCOCCOCCNC(=O)COc5ccc(C(=O)Nc6ncc(C)s6)c(C)c5)CC4)cn3)nc2n(C2CCCC2)c1=O` [CPD-019, 4-((23-(4-(6-((6-Acetyl-8-cyclopentyl-5-methyl-7-oxo-7,8-dihydropyrido[2,3-d]pyrimidin-2-yl)amino)pyridin-3-yl)piperazin-1-yl)-2,22-dioxo-6,9,12,15,18-pentaoxa-3,21-diazatricosyl)oxy)-2-methyl-N-(5-methylthiazol-2-yl)benzamide], for which the “CyclinD1 Degradation (200 nM)” value in assay [1] is listed as “D (protein percentage degradation <30%)”. Besides, in assay [2] (Calu-1 cells, 200 nM, 16 hours), the inhibition at 0.2 µM is < 30%.
On the same counts, the results for `CC(=O)c1c(C)c2cnc(Nc3ccc(N4CCN(CC(=O)NCCCCCCCCCNC(=O)c5ccc(C(=O)Nc6ncc(C)s6)c(C)c5)CC4)cn3)nc2n(C2CCCC2)c1=O` [CPD-024, N^4-(9-(2-(4-(6-((6-Acetyl-8-cyclopentyl-5-methyl-7-oxo-7,8-dihydropyrido[2,3-d]pyrimidin-2-yl)amino)pyridin-3-yl)piperazin-1-yl)acetamido)nonyl)-2-methyl-N^1-(5-methylthiazol-2-yl)terephthalamide] are “D (protein percentage degradation <30%)” and < 30%.
Regarding `CC(=O)c1c(C)c2cnc(Nc3ccc(N4CCN(CC(=O)NCCOCCOCCOCCOCCOCCNc5ccc(C(=O)Nc6ccc(C)cc6)c(C)c5)CC4)cn3)nc2n(C2CCCC2)c1=O` [CPD-025, 4-((1-(4-(6-((6-Acetyl-8-cyclopentyl-5-methyl-7-oxo-7,8-dihydropyrido[2,3-d]pyrimidin-2-yl)amino)pyridin-3-yl)piperazin-1-yl)-2-oxo-6,9,12,15,18-pentaoxa-3-azaicosan-20-yl)amino)-2-methyl-N-(p-tolyl)benzamide], the “CyclinD1 Degradation (200 nM)” value in assay [1] is on record as “D (protein percentage degradation <30%)”. In assay [2] (Calu-1, 16 h), the inhibition at 0.2 µM was < 30%.
Consider `CC(=O)c1c(C)c2cnc(Nc3ccc(N4CCN(CC(=O)NCCOCCOCCOCCOCCOCCNc5ccc(C(=O)Nc6ccccc6)c(C)c5)CC4)cn3)nc2n(C2CCCC2)c1=O` [CPD-027, 4-((1-(4-(6-((6-Acetyl-8-cyclopentyl-5-methyl-7-oxo-7,8-dihydropyrido[2,3-d]pyrimidin-2-yl)amino)pyridin-3-yl)piperazin-1-yl)-2-oxo-6,9,12,15,18-pentaoxa-3-azaicosan-20-yl)amino)-2-methyl-N-phenylbenzamide], for which, in assay [1], the “CyclinD1 Degradation (200 nM)” value was “D (protein percentage degradation <30%)”. In assay [2] (Calu-1, 16 h), the inhibition at 0.2 µM was < 30%.
On to `CC(=O)c1c(C)c2cnc(Nc3ccc(N4CCN(CC(=O)NCCOCCOCCOCCOCCOCCNc5ccc(C(=O)Nc6ncc(F)s6)c(C)c5)CC4)cn3)nc2n(C2CCCC2)c1=O` [CPD-028, 4-((1-(4-(6-((6-Acetyl-8-cyclopentyl-5-methyl-7-oxo-7,8-dihydropyrido[2,3-d]pyrimidin-2-yl)amino)pyridin-3-yl)piperazin-1-yl)-2-oxo-6,9,12,15,18-pentaoxa-3-azaicosan-20-yl)amino)-N-(5-fluorothiazol-2-yl)-2-methylbenzamide], for which the “CyclinD1 Degradation (200 nM)” value in assay [1] was “D (protein percentage degradation <30%)”. Also, the inhibition at 0.2 µM in assay [2] (Calu-1 cells, 200 nM, 16 hours) was < 30%.
In the case of `CC(=O)c1c(C)c2cnc(Nc3ccc(N4CCN(CC(=O)NCCOCCOCCOCCOCCOCCNc5ccc(C(=O)Nc6ncc(C7CC7)s6)c(C)c5)CC4)cn3)nc2n(C2CCCC2)c1=O` [CPD-029, 4-((1-(4-(6-((6-Acetyl-8-cyclopentyl-5-methyl-7-oxo-7,8-dihydropyrido[2,3-d]pyrimidin-2-yl)amino)pyridin-3-yl)piperazin-1-yl)-2-oxo-6,9,12,15,18-pentaoxa-3-azaicosan-20-yl)amino)-N-(5-cyclopropylthiazol-2-yl)-2-methylbenzamide], the “CyclinD1 Degradation (200 nM)” value in assay [1] was “D (protein percentage degradation <30%)”. Also, the inhibition at 0.2 µM in assay [2] (Calu-1 cells, 200 nM, 16 hours) was < 30%.
Consider `COc1cnc(NC(=O)c2ccc(NCCOCCOCCOCCOCCOCCNC(=O)CN3CCN(c4ccc(Nc5ncc6c(C)c(C(C)=O)c(=O)n(C7CCCC7)c6n5)nc4)CC3)cc2C)s1` [CPD-030, 4-((1-(4-(6-((6-Acetyl-8-cyclopentyl-5-methyl-7-oxo-7,8-dihydropyrido[2,3-d]pyrimidin-2-yl)amino)pyridin-3-yl)piperazin-1-yl)-2-oxo-6,9,12,15,18-pentaoxa-3-azaicosan-20-yl)amino)-N-(5-methoxythiazol-2-yl)-2-methylbenzamide], for which the “CyclinD1 Degradation (200 nM)” value in assay [1] is “B (protein percentage degradation <80%, and >=50%)”. Besides, in assay [2] (Calu-1 cells, 200 nM, 16 hours), the inhibition at 0.2 µM lay within 30 to 50%.
Regarding `COC(=O)c1cnc(NC(=O)c2ccc(NCCOCCOCCOCCOCCOCCNC(=O)CN3CCN(c4ccc(Nc5ncc6c(C)c(C(C)=O)c(=O)n(C7CCCC7)c6n5)nc4)CC3)cc2C)s1` [CPD-032, Methyl 2-(4-((1-(4-(6-((6-acetyl-8-cyclopentyl-5-methyl-7-oxo-7,8-dihydropyrido[2,3-d]pyrimidin-2-yl)amino)pyridin-3-yl)piperazin-1-yl)-2-oxo-6,9,12,15,18-pentaoxa-3-azaicosan-20-yl)amino)-2-methylbenzamido)thiazole-5-carboxylate], the “CyclinD1 Degradation (200 nM)” value in assay [1] was “D (protein percentage degradation <30%)”. Further, the inhibition at 0.2 µM in assay [2] (Calu-1 cells, 200 nM, 16 hours) was < 30%.
On the same counts, the results for `CC(=O)c1c(C)c2cnc(Nc3ccc(N4CCN(CC(=O)NCCOCCOCCOCCOCCOCCNc5ccc(C(=O)Nc6nc(-c7ccccc7)c(C)s6)c(C)c5)CC4)cn3)nc2n(C2CCCC2)c1=O` [CPD-034] are “D (protein percentage degradation <30%)” and < 30%.
With `CC(=O)c1c(C)c2cnc(Nc3ccc(N4CCN(CC(=O)NCCCCCCCCCNC(=O)CNc5ccc(C(=O)Nc6ncc(C)s6)c(C)c5)CC4)cn3)nc2n(C2CCCC2)c1=O` [CPD-035], the “CyclinD1 Degradation (200 nM)” value in assay [1] is “C (protein percentage degradation <50%, and >=30%)”. The inhibition at 0.2 µM in assay [2] (Calu-1 cells, 200 nM, 16 hours) was in the range of 30 to 50%.
